Literature values as cited in US20250064731A1, “A LIQUID PHARMACEUTICAL FORMULATION OF CLONIDINE HYDROCHLORIDE” (NOVUMGEN LIMITED, priority 2022, published 2025).

Conditions: after oral administration

- absorption from the gastrointestinal tract: almost completely absorbed
- liver metabolism: rapid liver metabolism
Structure (SMILES): Clc1cccc(Cl)c1N=C1NCCN1 [clonidine, N-(2,6-dichlorophenyl)-4,5-dihydro-1H-imidazol-2-amine]
